± gives the expanded uncertainty stated by the source.
Experiment: xn = mol fraction of the nth substance listed
Settings: 100 kPa, Liquid; for speed of sound: Sing-around technique in a fixed-path interferometer; for mass density: Vibrating tube method

OCCOCCO [diethylene glycol] + O
Settings | mass density, x1 = 0.907 [kg/m3] | mass density, x1 = 0.9589 [kg/m3] | mass density, x1 = 0.9698 [kg/m3] | mass density, x1 = 0.99 [kg/m3] | mass density, x1 = 0.9901 [kg/m3] | speed of sound, x1 = 0.907 [m/s] | speed of sound, x1 = 0.9589 [m/s] | speed of sound, x1 = 0.9698 [m/s] | speed of sound, x1 = 0.99 [m/s] | speed of sound, x1 = 0.9901 [m/s]
283.15 K | 1123.13 ± 2 | 1123.27 ± 2 | 1123.27 ± 2 | 1123.33 ± 2 | 1123.33 ± 2 | 1620.3 ± 1.5 | 1617.8 ± 1.6 | 1617.4 ± 1.6 | 1616.4 ± 1.6 | 1616.5 ± 1.6
288.15 K | 1119.58 ± 2 | 1119.71 ± 2 | 1119.72 ± 2 | 1119.77 ± 2 | 1119.77 ± 2 | 1608 ± 1.5 | 1605.5 ± 1.6 | 1605.2 ± 1.6 | 1604.1 ± 1.6 | 1604.2 ± 1.6
293.15 K | 1116.02 ± 2 | 1116.15 ± 2 | 1116.16 ± 2 | 1116.21 ± 2 | 1116.21 ± 2 | 1595.9 ± 1.5 | 1593.3 ± 1.6 | 1593 ± 1.6 | 1591.9 ± 1.6 | 1592 ± 1.6
298.15 K | 1112.45 ± 2 | 1112.59 ± 2 | 1112.59 ± 2 | 1112.65 ± 2 | 1112.65 ± 2 | 1583.8 ± 1.5 | 1581 ± 1.6 | 1580.8 ± 1.6 | 1579.6 ± 1.6 | 1579.8 ± 1.6
303.15 K | 1108.88 ± 2 | 1109.02 ± 2 | 1109.03 ± 2 | 1109.08 ± 2 | 1109.08 ± 2 | 1571.7 ± 1.5 | 1569 ± 1.6 | 1568.6 ± 1.6 | 1567.5 ± 1.6 | 1567.4 ± 1.6
308.15 K | 1105.3 ± 2 | 1105.43 ± 2 | 1105.44 ± 2 | 1105.5 ± 2 | 1105.5 ± 2 | 1559.6 ± 1.5 | 1557 ± 1.6 | 1556.6 ± 1.6 | 1555.4 ± 1.6 | 1555.4 ± 1.6
313.15 K | 1101.69 ± 2 | 1101.83 ± 2 | 1101.84 ± 2 | 1101.9 ± 2 | 1101.9 ± 2 | 1547.5 ± 1.5 | 1545 ± 1.6 | 1544.6 ± 1.6 | 1543.4 ± 1.6 | 1543.3 ± 1.6
323.15 K | 1094.45 ± 2 | 1094.6 ± 2 | 1094.6 ± 2 | 1094.67 ± 2 | 1094.67 ± 2 | 1523.4 ± 1.5 | 1520.9 ± 1.5 | 1520.5 ± 1.6 | 1519.3 ± 1.6 | 1519.2 ± 1.6
333.15 K | 1087.12 ± 2 | 1087.28 ± 2 | 1087.29 ± 2 | 1087.36 ± 2 | 1087.36 ± 2 | 1499 ± 1.5 | 1496.6 ± 1.5 | 1496.2 ± 1.6 | 1495.1 ± 1.6 | 1494.9 ± 1.6
343.15 K | 1079.71 ± 2 | 1079.88 ± 2 | 1079.9 ± 2 | 1079.97 ± 2 | 1079.97 ± 2 | 1474.6 ± 1.5 | 1472.2 ± 1.5 | 1471.8 ± 1.5 | 1470.8 ± 1.6 | 1470.5 ± 1.6

— the NIST ThermoML archive (doi:10.1021/acs.jced.5b00662)
